According to ChEMBL document CHEMBL6074689 (Eur J Med Chem, 2025):
Active and inactive are the calls of the source. The calls are words filed in the database; no cut-off is given here.

Assays:
[1] = Acute toxicity in Swiss albino mouse assessed as animal survival at 175 mg/kg, po administered for 14 days; type: organism-based; conditions: in vivo, 336 h, time 14 day
[2] = molecular target: Amyloid-beta precursor protein (Homo sapiens) (UniProt P05067); experiment: Inhibition of amyloid beta (1 to 42) (unknown origin) self induced aggregation at 1.521 uM incubated for 72 hrs by transmission electron microscopic analysis
Mus musculus [3] = experiment: Antialzheimer activity in scopolamine-induced Swiss albino mouse model assessed as reduction in AChE level at 0.3 to 0.5 mg/kg, po preincubated with compound for 30 mins followed by scopolamine induction and measured after 30 mins; type: functional, organism-based; conditions: dose 0.3-0.5 mg/kg, time 1.0 hrs
PC-12 [4] = experiment: Induction of apoptosis in rat PC-12 cells assessed as viable cells at 20 uM incubated for 24 hrs by Annexin V/PI staining based flow cytometry analysis (reference value: 82.8%); type: functional; conditions: read-out: Activity
Acetylcholinesterase [5] = molecular target: T1, Acetylcholinesterase (Homo sapiens, UniProt P22303); experiment: Displacement of propidium iodide from human AChE PAS assessed as reduction in fluorescence intensity at 0.1 uM incubated for 6 hrs by fluorescence based analysis relative to control; design: scale not given: the % may be the effect or the level left
Cholinesterase = Cholinesterase (Equus caballus, UniProt P81908); experiment: Inhibition of equine serum BChE using acetylthiocholine iodide as substrate preincubated with compound for 30 mins followed by substrate addition and measured after 30 mins by DTNB reagent based Ellman's method
Mus musculus [6] = experiment: Neuroprotective activity against scopolamine-induced Swiss albino mouse model assessed as increase in CREB1 mRNA level at 0.3 to 0.5 mg/kg, po measured after 6 days by RT-PCR analysis; type: functional, organism-based; conditions: dose 0.3-0.5 mg/kg, time 6.0 day
PC-12 [7] = experiment: Induction of apoptosis in rat PC-12 cells assessed as viable cells at 2.5 uM incubated for 24 hrs by Annexin V/PI staining based flow cytometry analysis (reference value: 82.8%); type: functional; conditions: read-out: Activity
[8] = Permeability of the compound across blood brain barrier; type: ADME; conditions: read-out: BBB
Mus musculus [9] = experiment: (§1) Antialzheimer activity in scopolamine-induced Swiss albino mouse model assessed as decrease in escape latency at 0.3 to 0.5 mg/kg, po preincubated with compound for 30 mins followed by scopolamine induction and measured after 5 days by Morris water maze test; type: functional, organism-based; conditions: dose 0.3-0.5 mg/kg, time 7230.0 min
PC-12 [10] = experiment: Induction of apoptosis in rat PC-12 cells assessed as viable cells at 5 uM incubated for 24 hrs by Annexin V/PI staining based flow cytometry analysis (reference value: 82.8%); type: functional; conditions: read-out: Activity
Mus musculus [11] = experiment: Neuroprotective activity against scopolamine-induced Swiss albino mouse model assessed as effect on GAP43 mRNA level at 0.3 to 0.5 mg/kg, po measured after 6 days by RT-PCR analysis; type: functional, organism-based; conditions: dose 0.3-0.5 mg/kg, time 6.0 day
Mus musculus [12] = experiment: Antialzheimer activity in scopolamine-induced Swiss albino mouse model assessed as reduction in BChE level at 0.3 to 0.5 mg/kg, po preincubated with compound for 30 mins followed by scopolamine induction and measured after 30 mins; type: functional, organism-based; conditions: dose 0.3-0.5 mg/kg, time 1.0 hrs
Mus musculus [13] = experiment: Neuroprotective activity against scopolamine-induced Swiss albino mouse model assessed as upregulation of PKA mRNA level at 0.3 to 0.5 mg/kg, po measured after 6 days by RT-PCR analysis; type: functional, organism-based; conditions: dose 0.3-0.5 mg/kg, time 6.0 day
Mus musculus [14] = experiment: Neuroprotective activity against scopolamine-induced Swiss albino mouse model assessed as increase in NR4A2 mRNA level at 0.3 to 0.5 mg/kg, po measured after 6 days by RT-PCR analysis; type: functional, organism-based; conditions: dose 0.3-0.5 mg/kg, time 6.0 day
[15] = molecular target: Amyloid-beta precursor protein (Homo sapiens) (UniProt P05067); experiment: Inhibition of amyloid beta (1 to 42) (unknown origin) self induced aggregation at 1.521 uM incubated for 72 hrs by ThT fluorescence based assay
[16] = Acute toxicity in Swiss albino mouse assessed as convulsion at 175 mg/kg, po administered for 14 days; type: organism-based; conditions: in vivo, 336 h, time 14 day
[17] = Metal chelating activity assessed as compound-Fe2+ complex formation by measuring increase in absorption intensity at 300 uM in presence of by UV-vis spectrometry
Acetylcholinesterase [18] = molecular target: T1, Acetylcholinesterase; experiment: Displacement of propidium iodide from human AChE PAS assessed as reduction in fluorescence intensity at 5 uM incubated for 6 hrs by fluorescence based analysis relative to control; design: scale not given: the % may be the effect or the level left
Mus musculus [19] = experiment: Neuroprotective activity against scopolamine-induced Swiss albino mouse model assessed as increase in C-FOS mRNA level at 0.3 to 0.5 mg/kg, po measured after 6 days by RT-PCR analysis; type: functional, organism-based; conditions: dose 0.3-0.5 mg/kg, time 6.0 day
[20] = Metal chelating activity assessed as compound-Cu2+ complex formation by measuring increase in absorption intensity at 300 uM in presence of by UV-vis spectrometry
Mus musculus [21] = experiment: as §1, with “improvement” for “decrease”, “memory retention by measuring time spent in platform quadrant” for “escape latency”; type: functional, organism-based; conditions: dose 0.3-0.5 mg/kg, time 7230.0 min
Mus musculus [22] = experiment: Antioxidant activity against scopolamine-induced Swiss albino mouse model assessed as increase in MDA level at 0.3 to 0.5 mg/kg, po by absorbance based analysis; type: functional, organism-based; conditions: dose 0.3-0.5 mg/kg
PC-12 [23] = experiment: Neuroprotective activity against H2O2-induced oxidative stress in rat PC-12 cells assessed as cell viability at 1 to 20 uM preincubated with compound for 24 hrs and followed by H2O2 induction and measured after 24 hrs by MTT assay; type: functional, cell-based; conditions: dose 1-20 µM, time 48.0 hrs
[24] = Acute toxicity in Swiss albino mouse assessed as tremor at 175 mg/kg, po administered for 14 days; type: organism-based; conditions: in vivo, 336 h, time 14 day
[25] = Acute toxicity in Swiss albino mouse assessed as body weight gain at 175 mg/kg, po administered for 14 days; type: organism-based; conditions: in vivo, 336 h, time 14 day
PC-12 [26] = experiment: Induction of apoptosis in rat PC-12 cells assessed as viable cells at 10 uM incubated for 24 hrs by Annexin V/PI staining based flow cytometry analysis (reference value: 82.8%); type: functional; conditions: read-out: Activity
Drosophila melanogaster [27] = experiment: Inhibition of oxidative stress in y-GAL4 driven UAS-amyloid beta (1 to 42) induced Drosophila melanogaster Oregon R-positive assessed as fold increase in ROS level at 10 to 20 uM incubated for 30 mins by H2DCFDA staining based analysis; type: functional; conditions: dose 10-20 µM, 0.5 h
Acetylcholinesterase [28] = molecular target: T1, Acetylcholinesterase; experiment: Displacement of propidium iodide from human AChE PAS assessed as reduction in fluorescence intensity at 1 uM incubated for 6 hrs by fluorescence based analysis relative to control; design: scale not given: the % may be the effect or the level left
Drosophila melanogaster [29] = experiment: Anti-alzheimer activity in ey-GAL4 driven UAS-amyloid beta (1 to 42) induced Drosophila melanogaster Oregon R-positive assessed as fold increase in superoxide level at 10 uM by fluorescence based analysis; type: functional
PC-12 [30] = experiment: Cytotoxicity against rat PC-12 cells assessed as cell viability upto 20 uM measured for 24 hrs by MTT assay; type: toxicity, cell-based; conditions: pc-12, 24 h
Mus musculus [31] = experiment: Neuroprotective activity against scopolamine-induced Swiss albino mouse model assessed as upregulation of MMP9 mRNA level at 0.3 to 0.5 mg/kg, po measured after 6 days by RT-PCR analysis; type: functional, organism-based; conditions: dose 0.3-0.5 mg/kg, time 6.0 day
[32] = Toxicity in Drosophila melanogaster Oregon R-positive assessed as reduction in eclosed flies at 40 uM measured for 15 days relative to control; design: scale not given: the % may be the effect or the level left; conditions: 360 h, time 15 day
Mus musculus [33] = experiment: Antioxidant activity against scopolamine-induced Swiss albino mouse model assessed as increase in catalase level in brain at 0.3 to 0.5 mg/kg, po by absorbance based analysis; type: functional, organism-based; conditions: dose 0.3-0.5 mg/kg
Acetylcholinesterase [34] = molecular target: T1, Acetylcholinesterase; experiment: Displacement of propidium iodide from human AChE PAS assessed as reduction in fluorescence intensity at 0.01 uM incubated for 6 hrs by fluorescence based analysis relative to control; design: scale not given: the % may be the effect or the level left
[35] = Antioxidant activity assessed as DPPH radical scavenging activity incubated for 30 mins; type: functional
Mus musculus [36] = experiment: Neuroprotective activity against scopolamine-induced Swiss albino mouse model assessed as effect on PSD95 mRNA level at 0.3 to 0.5 mg/kg, po measured after 6 days by RT-PCR analysis; type: functional, organism-based; conditions: dose 0.3-0.5 mg/kg, time 6.0 day
[37] = Acute toxicity in Swiss albino mouse assessed as abnormal behavior at 175 mg/kg, po administered for 14 days; type: organism-based; conditions: in vivo, 336 h, time 14 day
Mus musculus [38] = experiment: Antioxidant activity against scopolamine-induced Swiss albino mouse model assessed as increase in SOD level at 0.3 to 0.5 mg/kg, po by absorbance based analysis; type: functional, organism-based; conditions: dose 0.3-0.5 mg/kg
Acetylcholinesterase [39] = molecular target: T1, Acetylcholinesterase; experiment: Inhibition of human recombinant AChE expressed in HEK293 cells using acetylthiocholine iodide as substrate preincubated with compound for 30 mins followed by substrate addition and measured after 30 mins by DTNB reagent based Ellman's method
[40] = Antioxidant activity assessed as DPPH radical scavenging activity at 200 uM incubated for 30 mins relative to control; type: functional

T1 sequence (P22303 whole entry): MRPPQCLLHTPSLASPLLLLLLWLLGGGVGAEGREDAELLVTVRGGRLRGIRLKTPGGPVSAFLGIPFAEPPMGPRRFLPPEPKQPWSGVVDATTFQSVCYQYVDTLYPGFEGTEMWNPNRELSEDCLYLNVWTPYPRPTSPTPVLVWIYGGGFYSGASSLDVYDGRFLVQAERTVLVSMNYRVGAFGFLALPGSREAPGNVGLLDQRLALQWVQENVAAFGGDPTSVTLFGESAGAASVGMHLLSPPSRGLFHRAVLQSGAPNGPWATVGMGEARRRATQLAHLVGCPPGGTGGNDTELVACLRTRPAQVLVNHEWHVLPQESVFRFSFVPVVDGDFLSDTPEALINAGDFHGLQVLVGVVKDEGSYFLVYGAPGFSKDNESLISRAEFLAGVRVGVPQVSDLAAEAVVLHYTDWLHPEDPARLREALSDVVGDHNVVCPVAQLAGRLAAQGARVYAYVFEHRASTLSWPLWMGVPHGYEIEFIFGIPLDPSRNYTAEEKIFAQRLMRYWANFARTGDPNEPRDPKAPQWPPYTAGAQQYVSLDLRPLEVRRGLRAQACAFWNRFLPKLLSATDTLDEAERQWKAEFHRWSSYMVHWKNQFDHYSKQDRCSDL
Cholinesterase, sequence (P81908 whole entry): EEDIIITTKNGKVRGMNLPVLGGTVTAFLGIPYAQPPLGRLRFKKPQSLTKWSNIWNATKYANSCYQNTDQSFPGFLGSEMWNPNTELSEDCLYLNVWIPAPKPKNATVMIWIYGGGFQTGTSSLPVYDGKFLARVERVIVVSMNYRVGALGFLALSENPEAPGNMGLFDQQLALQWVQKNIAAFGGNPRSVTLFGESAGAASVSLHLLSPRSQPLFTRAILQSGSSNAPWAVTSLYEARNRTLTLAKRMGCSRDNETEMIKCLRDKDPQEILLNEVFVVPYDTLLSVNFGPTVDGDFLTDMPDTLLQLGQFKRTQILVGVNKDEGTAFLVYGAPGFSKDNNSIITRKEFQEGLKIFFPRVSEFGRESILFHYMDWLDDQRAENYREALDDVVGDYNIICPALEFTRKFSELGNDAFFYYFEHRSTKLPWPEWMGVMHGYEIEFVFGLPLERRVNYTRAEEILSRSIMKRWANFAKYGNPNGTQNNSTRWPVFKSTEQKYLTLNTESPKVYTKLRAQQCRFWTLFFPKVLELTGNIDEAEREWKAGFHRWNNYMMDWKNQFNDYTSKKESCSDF
Amyloid-beta precursor protein (Homo sapiens), sequence (P05067 whole entry): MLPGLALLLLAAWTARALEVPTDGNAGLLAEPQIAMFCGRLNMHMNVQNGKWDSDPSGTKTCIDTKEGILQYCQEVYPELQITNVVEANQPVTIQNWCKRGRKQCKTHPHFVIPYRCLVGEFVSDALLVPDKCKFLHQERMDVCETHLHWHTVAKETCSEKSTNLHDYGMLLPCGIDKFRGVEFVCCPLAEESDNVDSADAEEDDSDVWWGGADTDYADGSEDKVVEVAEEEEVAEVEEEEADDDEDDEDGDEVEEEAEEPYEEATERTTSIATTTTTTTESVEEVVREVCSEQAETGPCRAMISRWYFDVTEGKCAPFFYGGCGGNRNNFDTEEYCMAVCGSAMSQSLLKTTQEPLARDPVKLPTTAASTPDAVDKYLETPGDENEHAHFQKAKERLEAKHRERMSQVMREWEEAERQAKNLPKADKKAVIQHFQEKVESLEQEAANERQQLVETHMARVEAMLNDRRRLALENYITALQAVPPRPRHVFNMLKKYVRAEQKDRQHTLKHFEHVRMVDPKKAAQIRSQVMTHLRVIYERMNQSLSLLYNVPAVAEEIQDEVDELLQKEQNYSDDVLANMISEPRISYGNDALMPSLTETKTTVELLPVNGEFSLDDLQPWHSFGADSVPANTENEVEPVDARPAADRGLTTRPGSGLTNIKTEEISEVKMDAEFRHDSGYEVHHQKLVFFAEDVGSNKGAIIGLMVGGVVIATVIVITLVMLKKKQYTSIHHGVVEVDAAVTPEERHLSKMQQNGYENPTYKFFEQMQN

C[C@@H](c1cccc(OC(=O)NCCc2c[nH]c3ccc(O)cc23)c1)N(C)C
Activity [1]: Non-toxic | inhibition [2]: Active | Activity (Mus musculus [3]): Active | viability at 20 µM (PC-12 [4]): 80.7% | Activity (Acetylcholinesterase [5]): 5.56% | IC50 (Cholinesterase): 27.8 nM | Activity (Mus musculus [6]): Active | viability at 2.5 µM (PC-12 [7]): 65.9% | Papp [8]: 11.5 ×10⁻⁶ cm/s | Activity (Mus musculus [9]): Active | viability at 5 µM (PC-12 [10]): 71.3% | Activity (Mus musculus [11]): Active | Activity (Mus musculus [12]): Active | Activity (Mus musculus [13]): Active | Activity (Mus musculus [14]): Active | inhibition [15]: 100% | Activity [16]: Non-toxic | Activity [17]: inactive | Activity (Acetylcholinesterase [18]): 26.2% | Activity (Mus musculus [19]): Active | Activity [20]: inactive | Activity (Mus musculus [21]): Active | Activity (Mus musculus [22]): Active | Activity (PC-12 [23]): Active | Activity [24]: Non-toxic | Activity [25]: Non-toxic | viability at 10 µM (PC-12 [26]): 63.3% | fold change (FC) (Drosophila melanogaster [27]): 1.8 | Activity (Acetylcholinesterase [28]): 18.3% | fold change (FC) (Drosophila melanogaster [29]): 1.25 | Activity (PC-12 [30]): Non-toxic | Activity (Mus musculus [31]): Active | Activity [32]: 9% | Activity (Mus musculus [33]): Active | Activity (Acetylcholinesterase [34]): 3.54% | IC50 [35]: 22900 nM | Activity (Mus musculus [36]): Active | Activity [37]: Non-toxic | Activity (Mus musculus [38]): Active | IC50 (Acetylcholinesterase [39]): 0.99 nM

Cc1ccc2[nH]cc(CCNC(=O)Oc3cccc(C(C)N(C)C)c3)c2c1 (stereo not given)
IC50 (Cholinesterase): 38.7 nM | IC50 (Acetylcholinesterase [39]): 73.3 nM

CC(c1cccc(OC(=O)NCCc2c[nH]c3ccc(Cl)cc23)c1)N(C)C (stereo not given)
IC50 (Cholinesterase): 2.14 nM | Activity [40]: 33.3% | IC50 (Acetylcholinesterase [39]): 13.8 nM
